# Experimental data taken from patent US11306092B2, “Amino indole compounds useful as TLR inhibitors” (BRISTOL-MYERS SQUIBB COMPANY, priority 2017, dated 2022).
# Legend:
# Type in all cases: cell-based
# human TLR8 = target: T1, human TLR8 (Homo sapiens, UniProt Q9NR97); assay: TLR8 inhibition reporter assay (HEK-Blue SEAP reporter); settings: HEK-Blue cells overexpressing human TLR8; R848 15.9 μM; 22 hour incubation
# T1 construct: host or cells: HEK-Blue cells
# T1 sequence (Q9NR97 27-1041): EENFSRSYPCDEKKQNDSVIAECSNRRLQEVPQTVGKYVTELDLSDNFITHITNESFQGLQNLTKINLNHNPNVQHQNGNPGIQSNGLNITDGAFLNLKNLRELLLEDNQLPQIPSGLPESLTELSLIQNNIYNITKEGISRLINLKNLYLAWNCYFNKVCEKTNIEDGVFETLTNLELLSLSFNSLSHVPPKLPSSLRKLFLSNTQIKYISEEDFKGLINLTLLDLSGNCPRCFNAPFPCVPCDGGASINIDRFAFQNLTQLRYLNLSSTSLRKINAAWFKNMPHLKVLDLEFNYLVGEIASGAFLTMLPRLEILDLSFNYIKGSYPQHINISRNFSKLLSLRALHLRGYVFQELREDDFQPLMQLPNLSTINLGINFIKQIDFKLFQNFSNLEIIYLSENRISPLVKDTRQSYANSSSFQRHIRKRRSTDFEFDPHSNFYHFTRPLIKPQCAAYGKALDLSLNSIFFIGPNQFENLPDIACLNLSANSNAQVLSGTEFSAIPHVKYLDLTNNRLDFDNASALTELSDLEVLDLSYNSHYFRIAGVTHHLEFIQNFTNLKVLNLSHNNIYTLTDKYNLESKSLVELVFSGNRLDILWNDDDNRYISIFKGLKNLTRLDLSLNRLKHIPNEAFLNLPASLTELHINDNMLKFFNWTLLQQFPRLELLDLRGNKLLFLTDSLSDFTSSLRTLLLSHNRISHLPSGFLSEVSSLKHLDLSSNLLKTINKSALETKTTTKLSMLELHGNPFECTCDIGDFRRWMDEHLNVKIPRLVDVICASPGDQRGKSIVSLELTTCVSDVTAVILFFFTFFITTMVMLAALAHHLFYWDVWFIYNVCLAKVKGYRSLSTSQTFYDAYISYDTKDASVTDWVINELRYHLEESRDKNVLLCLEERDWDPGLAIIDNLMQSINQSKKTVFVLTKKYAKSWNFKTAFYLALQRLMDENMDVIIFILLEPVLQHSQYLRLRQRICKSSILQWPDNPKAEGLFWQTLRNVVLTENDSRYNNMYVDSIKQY
# Procedure: TLR7/8/9 Inhibition Reporter Assays
# HEK-Blue™-cells (Invivogen) overexpressing human TLR7, TLR8 or TLR9 receptors were used for screening inhibitors of these receptors using an inducible SEAP (secreted embryonic alkaline phosphatase) reporter gene under the control of the IFN-β minimal promoter fused to five NF-κB and AP-1-binding sites. Briefly, cells are seeded into Greiner 384 well plates (15000 cells per well for TLR7, 20,000 for TLR8 and 25,000 for TLR9) and then treated with test compounds in DMSO to yield a final dose response concentration range of 0.05 nM-50 μM. After a 30 minute compound pre-treatment at room temperature, the cells are then stimulated with a TLR7 ligand (gardiquimod at a final concentration of 7.5 μM), TLR8 ligand (R848 at a final concentration of 15.9 μM) or TLR9 ligand (ODN2006 at a final concentration of 5 nM) to activate NF-κB and AP-1 which induce the production of SEAP. After a 22 hour incubation at 37° C., 5% CO2, SEAP levels are determined with the addition of HEK-Blue™ Detection reagent (Invivogen), a cell culture medium that allows for detection of SEAP, according to manufacturer's specifications. The percent inhibition is determined as the % reduction in the HEK-Blue signal present in wells treated with agonist plus DMSO alone compared to wells treated with a known inhibitor.
# human TLR9 = target: T2, human TLR9 (Homo sapiens, UniProt Q9NR96); assay: TLR9 inhibition reporter assay (HEK-Blue SEAP reporter); settings: HEK-Blue cells overexpressing human TLR9; ODN2006 5 nM; 22 hour incubation
# T2 construct: host or cells: HEK-Blue cells
# T2 sequence (Q9NR96 26-1032): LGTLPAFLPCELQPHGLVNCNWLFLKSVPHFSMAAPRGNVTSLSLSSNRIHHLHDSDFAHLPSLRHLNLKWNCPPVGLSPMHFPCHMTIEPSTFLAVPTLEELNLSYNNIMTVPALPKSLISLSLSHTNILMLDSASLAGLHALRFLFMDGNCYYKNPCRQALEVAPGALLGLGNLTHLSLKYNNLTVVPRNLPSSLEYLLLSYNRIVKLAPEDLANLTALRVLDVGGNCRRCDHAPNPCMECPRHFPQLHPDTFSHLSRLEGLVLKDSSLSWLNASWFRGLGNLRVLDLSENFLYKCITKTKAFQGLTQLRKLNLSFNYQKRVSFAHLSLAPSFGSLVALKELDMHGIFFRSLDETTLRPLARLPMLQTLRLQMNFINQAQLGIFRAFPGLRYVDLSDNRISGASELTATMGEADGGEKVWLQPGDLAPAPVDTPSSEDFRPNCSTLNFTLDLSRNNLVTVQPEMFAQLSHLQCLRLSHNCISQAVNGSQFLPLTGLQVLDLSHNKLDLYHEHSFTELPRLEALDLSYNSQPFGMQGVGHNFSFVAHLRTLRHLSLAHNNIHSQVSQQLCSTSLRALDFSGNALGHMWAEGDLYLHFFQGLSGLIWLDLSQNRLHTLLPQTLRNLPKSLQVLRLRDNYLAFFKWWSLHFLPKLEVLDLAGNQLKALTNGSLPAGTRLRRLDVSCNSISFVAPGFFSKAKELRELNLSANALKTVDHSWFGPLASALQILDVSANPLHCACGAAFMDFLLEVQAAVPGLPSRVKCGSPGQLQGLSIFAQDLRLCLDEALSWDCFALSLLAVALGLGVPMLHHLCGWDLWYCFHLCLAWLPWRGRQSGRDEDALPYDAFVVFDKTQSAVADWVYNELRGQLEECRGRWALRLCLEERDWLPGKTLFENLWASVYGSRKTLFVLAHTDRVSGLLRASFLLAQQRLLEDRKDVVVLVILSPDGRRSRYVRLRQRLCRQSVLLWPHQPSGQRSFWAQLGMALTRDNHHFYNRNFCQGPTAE
# Outline: (§1)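 Human TLR7/8/9 HEK-Blue reporter lines; dose range 0.05 nM–50 μM; 30 min RT preincubation; stimulus gardiquimod 7.5 μM / R848 15.9 μM / ODN2006 5 nM respectively; 22 h, 37 °C; SEAP detected colorimetrically.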
# human TLR7 = target: T3, human TLR7 (Homo sapiens, UniProt Q9NYK1); assay: TLR7 inhibition reporter assay (HEK-Blue SEAP reporter); settings: HEK-Blue cells overexpressing human TLR7; gardiquimod 7.5 μM; 22 hour incubation
# T3 construct: host or cells: HEK-Blue cells
# T3 sequence (Q9NYK1 27-1049): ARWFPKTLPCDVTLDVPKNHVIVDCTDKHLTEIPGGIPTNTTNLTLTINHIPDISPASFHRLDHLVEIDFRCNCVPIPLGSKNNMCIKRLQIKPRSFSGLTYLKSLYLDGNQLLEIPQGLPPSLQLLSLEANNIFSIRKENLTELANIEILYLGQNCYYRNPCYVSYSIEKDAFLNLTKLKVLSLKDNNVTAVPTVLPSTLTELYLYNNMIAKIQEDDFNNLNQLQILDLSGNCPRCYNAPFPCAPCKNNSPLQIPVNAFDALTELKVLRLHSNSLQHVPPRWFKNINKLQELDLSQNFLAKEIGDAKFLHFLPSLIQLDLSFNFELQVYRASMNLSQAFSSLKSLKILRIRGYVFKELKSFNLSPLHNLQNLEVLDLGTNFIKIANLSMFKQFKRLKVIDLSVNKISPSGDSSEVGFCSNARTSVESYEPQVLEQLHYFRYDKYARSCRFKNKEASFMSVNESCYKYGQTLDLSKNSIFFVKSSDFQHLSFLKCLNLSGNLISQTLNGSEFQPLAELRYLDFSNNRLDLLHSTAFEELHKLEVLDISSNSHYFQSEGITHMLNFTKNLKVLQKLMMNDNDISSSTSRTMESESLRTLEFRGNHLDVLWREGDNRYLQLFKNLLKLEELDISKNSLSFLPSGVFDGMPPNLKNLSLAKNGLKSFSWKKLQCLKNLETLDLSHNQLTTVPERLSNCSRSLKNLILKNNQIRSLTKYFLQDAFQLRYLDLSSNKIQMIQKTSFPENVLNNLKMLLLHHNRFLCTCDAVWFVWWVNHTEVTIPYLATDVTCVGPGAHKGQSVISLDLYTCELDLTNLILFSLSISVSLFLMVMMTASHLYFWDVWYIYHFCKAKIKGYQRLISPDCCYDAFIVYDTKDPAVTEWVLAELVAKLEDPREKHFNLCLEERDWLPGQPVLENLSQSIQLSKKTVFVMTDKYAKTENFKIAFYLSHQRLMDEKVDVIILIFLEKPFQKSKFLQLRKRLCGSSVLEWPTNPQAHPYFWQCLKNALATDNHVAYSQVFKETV
# Outline: as §1
IC50 (human TLR8),IC50 (human TLR9),IC50 (human TLR7),Compound
5.8 nM,597 nM,6.4 nM,"Cc1cc(-c2[nH]c3ccc(N4CCC(N5CCN(C(C)C)CC5)C4=O)cc3c2C(C)C)cc(C)n1 (single isomer, unassigned) [Example 5, 1-(2-(2,6-dimethylpyridin-4-yl)-3-isopropyl-1H-indol-5-yl)-3-(4-isopropylpiperazin-1-yl) pyrrolidin-2-one]"
4.9 nM,1020 nM,3.9 nM,"Cc1cc(-c2[nH]c3ccc(N4CCC(N5CCN(C(C)C)CC5)C4=O)cc3c2C(C)C)cc(C)n1 (single isomer, unassigned) [Example 6, 1-(2-(2,6-dimethylpyridin-4-yl)-3-isopropyl-1H-indol-5-yl)-3-(4-isopropylpiperazin-1-yl) pyrrolidin-2-one]"
234 nM,281 nM,434 nM,"CNCCNC1CCC(Nc2ccc3[nH]c(-c4ccc(OC)c(OC)c4)c(C(C)C)c3c2)CC1 (single isomer, unassigned) [Example 30, N1-(2-(3,4-dimethoxyphenyl)-3-isopropyl-1H-indol-5-yl)-N4-(2-(methylamino)ethyl)cyclohexane-1,4-diamine]"
171 nM,570 nM,43 nM,"COc1ccc(-c2[nH]c3ccc(NC4CCC(NC5CCN(C)CC5)CC4)cc3c2C(C)C)cc1OC (single isomer, unassigned) [Example 40, N1-(2-(3,4-dimethoxyphenyl)-3-isopropyl-1H-indol-5-yl)-N4-(1-methylpiperidin-4-yl)cyclohexane-1,4-diamine]"
16 nM,488 nM,189 nM,"CNCCNC1CCN(c2ccc3[nH]c(-c4ccnc(C)c4)c(C(C)C)c3c2)C1=O (stereo not shown) [Example 1, 1-(3-isopropyl-2-(2-methylpyridin-4-yl)-1H-indol-5-yl)-3-((2-(methylamino)ethyl)amino)pyrrolidin-2-one]"
28 nM,4970 nM,99 nM,"Cc1cc(-c2[nH]c3ccc(N4CCC(N(C)CCN)C4=O)cc3c2C(C)C)ccn1 (stereo not shown) [Example 2, 3-((2-aminoethyl)(methyl)amino)-1-(3-isopropyl-2-(2-methylpyridin-4-yl)-1H-indol-5-yl)pyrrolidin-2-one]"
31 nM,10800 nM,44 nM,"COc1ccc(-c2[nH]c3ccc(N4CCC(N(C)C)C4=O)cc3c2C(C)C)cc1OC (stereo not shown) [Example 3, 1-(2-(3,4-dimethoxyphenyl)-3-isopropyl-1H-indol-5-yl)-3-(dimethylamino)pyrrolidin-2-one]"
89 nM,–,280 nM,"COc1ccc(-c2[nH]c3ccc(NC(=O)[C@@H](N)CC(N)=O)cc3c2C(C)C)cc1OC [Example 18, (S)-2-amino-N1-(2-(3,4-dimethoxyphenyl)-3-isopropyl-1H-indol-5-yl)succinamide]"
97 nM,–,441 nM,"COc1ccc(-c2[nH]c3ccc(NC(=O)[C@H](N)CC(N)=O)cc3c2C(C)C)cc1OC [Example 19, (R)-2-amino-N1-(2-(3,4-dimethoxyphenyl)-3-isopropyl-1H-indol-5-yl)succinamide]"
> 50000 nM,608 nM,–,"COc1ccc(-c2[nH]c3ccc(N4CCC(CCN(C)C)CC4)cc3c2C(C)C)cc1OC [Example 71, 2-(1-(2-(3,4-dimethoxyphenyl)-3-isopropyl-1H-indol-5-yl)piperidin-4-yl)-N,N-dimethylethan-1-amine]"
> 50000 nM,451 nM,–,"CCN1CCC(N2CCN(c3ccc4[nH]c(-c5ccc(OC)c(OC)c5)c(C)c4c3)CC2)CC1 [Example 155, 2-(3,4-dimethoxyphenyl)-5-(4-(1-ethylpiperidin-4-yl)piperazin-1-yl)-3-methyl-1H-indole]"
47900 nM,658 nM,–,"CCc1c(-c2ccnc(C)c2)[nH]c2ccc(N3CCC(OC4CCN(C(C)C)CC4)CC3)cc12 [Example 182, 3-ethyl-5-(4-((1-isopropylpiperidin-4-yl)oxy)piperidin-1-yl)-2-(2-methylpyridin-4-yl)-1H-indole]"
